Test [1] relates to Entamoeba histolytica. As to the kind of experiment: MMV: Primary screening was performed with each compound at a 30 uM final concentration and in triplicate in sealed 96-well polystyrene microtiter plates. Parasite inocula (100 ul) comprising 20000 parasites/ml were added to each well and grown at 37 degrees C in a humidified atmosphere of 5% CO2 for 72 h. Positive controls consisted of metronidazole at 1 mg/ml. The growth of E. histolytica trophozoites in each well was determined microscopically by measuring the diameters of the confluent cells in drug-containing wells relative to those in the nega- tive-control wells. The test is classed as functional, organism-based.

Test [2] deals with Toxoplasma gondii. As to the kind of experiment: MMV: A total of 100ul of inoculum was added to each well (parasite/cell ratio, ~10:1; final volume, 200 ul). Six hours after inoculation, nonadherent parasites were removed, and 100 ul of complete DMEM (1% penicillin-streptomycin, 3% FBS) supplemented with inhibitors at different concentrations (2-fold serial dilutions starting from 30 uM) was added to all except the negative-control wells. Positive controls, consisting of pyrimethamine (PYR) and sulfadiazine (SDZ) (20-mg/ml stocks in DMSO), were tested at a 2mg/ml final concentration. Each test was performed in triplicate. The test is classed as functional, organism-based. Conditions: 6 h.

What is called IC50 is the concentration needed to halve the response being measured. For the molecule `OC(CNC1CCCCC1)Cn1c2ccccc2c2ccccc21` (centres undefined), the figures for the IC50 in test [1] and in test [2] were over 30 µM and 8.72 µM, respectively.

Consider `O=C(NC1CCCC1)c1ccc(N2CCC(NCc3cccc(C(F)(F)F)c3)CC2)cc1`, for which the IC50 in test [1] and in test [2] was over 30 µM in each case.

With `C=C(C)CCC(C)N1CCC(N2CCC(C(=O)NCCc3ccccc3)CC2)CC1` (centres undefined), the concentration for half-maximal inhibition (IC50) in test [1] was over 30 µM; in test [2], 27.1 µM.

Consider `OC1=C2C(=Nc3ccccc3SC2c2ccccc2)c2ccccc21` (centres undefined), for which the IC50 in test [1] and in test [2] was over 30 µM throughout.

As for `O=C(Nc1ccc(N2CCCCC2)c(Cl)c1)c1ccc(Br)o1`, the IC50 in test [1] and in test [2] was over 30 µM throughout.

As for `COc1cccc(NC(=O)Cn2c(C)c(C#N)c3ccccc32)c1`, the IC50 in test [1] and in test [2] was over 30 µM throughout.

As for `Fc1ccc2[nH]c3c(NCCCN4CCOCC4)ncnc3c2c1`, the IC50 in test [1] and in test [2] was over 30 µM throughout.

Consider `Cc1ccc(F)cc1NC(=O)c1cc(Cl)ccc1Nc1ccccc1`, for which the IC50 in test [1] and in test [2] was over 30 µM throughout.

In the case of `CCOc1ccc(/C=C/c2nc(=O)c3ccccc3o2)cc1`, the IC50 in test [1] and in test [2] was over 30 µM each time.

As to `CCCCc1c(C)nc2c(OC)cccc2c1O`, the IC50 in test [1] and in test [2] was over 30 µM each time.

For `CCCCN(CCCC)S(=O)(=O)c1ccc(NC(=O)c2ccco2)cc1`, the IC50 was over 30 µM in test [1] and 1.07 µM in test [2].

Regarding `CCOC(=O)c1c(C)n(-c2ccccc2)c2ccc(OC(=O)c3cc(OC)c(OC)c(OC)c3)cc12`, the 50% inhibitory concentration (IC50) in test [1] and in test [2] was over 30 µM throughout.

Consider `FC(F)(F)c1cccc(Nc2nc3ccccc3nc2Nc2cccc(C(F)(F)F)c2)c1`, for which the IC50 in test [1] and in test [2] was over 30 µM each time.

As for `O=C(Nc1cccc(-c2nc3ccccc3[nH]2)c1)c1cccc(NC(=O)c2ccco2)c1`, the IC50 in test [1] and in test [2] was over 30 µM each time.

With `CC(C)(C)c1ccc(C(=O)Nc2nc3ccccc3s2)cc1`, the IC50 in test [1] and in test [2] was over 30 µM throughout.

Regarding `CC(=O)c1ccc(NC(=O)CSc2nc(-c3ccccc3Cl)ns2)cc1`, the IC50 in test [1] is over 30 µM; in test [2], 14.9 µM.

Take `CCOC(=O)c1ccc2nc(-c3ccccc3)cc(O)c2c1`: the IC50 in test [1] and in test [2] was over 30 µM each time.

`COc1ccc(C2c3ccc4ccccc4c3Oc3ncn(CCCN(C)C)c(=N)c32)cc1` (centres undefined): the IC50 in test [1] and in test [2] was over 30 µM each time.

Regarding `CCCCOc1ccc(C(=O)Nc2cc(C)on2)cc1`, the 50% inhibitory concentration (IC50) in test [1] and in test [2] was over 30 µM throughout.

Take `CC(C)(C)c1ccc2c(c1)CN(Cc1ccc(Cl)cc1)CO2`: the IC50 in test [1] was over 30 µM; in test [2], 20.4 µM.

With `COc1ccc(CCN2C(=O)c3[nH]nc(-c4cc(Cl)c(C)cc4O)c3C2c2ccccc2F)cc1` (centres undefined), the IC50 in test [1] and in test [2] was over 30 µM each time.

Take `COc1ccc(OC)c(C2C3=C(CC(C)(C)CC3=O)N(c3ccc(Cl)c(Cl)c3)C3=C2C(=O)CC(C)(C)C3)c1`: the IC50 in test [1] and in test [2] was over 30 µM throughout.

For the molecule `O=C(O)C1Cc2c([nH]c3ccccc23)C(c2ccc(Cl)cc2Cl)N1` (centres undefined), the IC50 in test [1] and in test [2] was over 30 µM in each case.

`c1ccc(-c2ccc(-c3nc4ccccc4[nH]3)cc2)cc1`: the IC50 in test [1] and in test [2] was over 30 µM each time.

In the case of `Clc1ccc2[nH]c3c(NCCCN4CCOCC4)ncnc3c2c1`, the IC50 in test [1] and in test [2] was over 30 µM throughout.

`CCCCc1c(CCC)c(=N)c2ccccc2n1C`: the IC50 in test [1] and in test [2] was over 30 µM each time.

Consider `COc1cc(-c2nc(-c3ccccc3)c(-c3ccccc3)[nH]2)cc(OC)c1O`, for which the IC50 in test [1] and in test [2] was over 30 µM in each case.

As to `COc1ccc(/C=C2/SC(=Nc3ccccc3)NC2=O)cc1`, the IC50 in test [1] and in test [2] was over 30 µM each time.

Turning to `CC(C)(C)c1ccc(C(=O)Nc2c3c(nn2-c2cccc(Cl)c2)CSC3)cc1`, the IC50 in test [1] and in test [2] was over 30 µM in each case.

In the case of `Nc1ccc(-c2nc3cc(Cc4ccc5[nH]c(-c6ccc(N)cc6)nc5c4)ccc3[nH]2)cc1`, the IC50 in test [1] and in test [2] was over 30 µM each time.

In the case of `COc1ccc(-c2nc(N3CCN(C(=O)C4CCCCC4)CC3)c3c4c(sc3n2)CCCC4)cc1`, the IC50 in test [1] and in test [2] was over 30 µM in each case.

On to `N=c1n(CCN2CCCCC2)c2ccccc2n1CC(=O)c1ccc(Cl)c(Cl)c1`, for which the IC50 in test [1] and in test [2] was over 30 µM in each case.

Turning to `CCOc1ccc2nc(C)cc(Nc3ccc(Br)cc3)c2c1`, the half-inhibitory concentration (IC50) in test [1] and in test [2] was over 30 µM in each case.

For `Cc1ccc(N2C3c4ccccc4N(S(=O)(=O)c4ccc(C)cc4)C2c2ccccc2N3S(=O)(=O)c2ccc(C)cc2)cc1`, the IC50 in test [1] and in test [2] was over 30 µM in each case.

As for `CCN(CC)c1cc(C)c2cc(NC(=O)c3cccc(OC)c3)ccc2n1`, the half-inhibitory concentration (IC50) in test [1] and in test [2] was over 30 µM in each case.

In the case of `COc1ccccc1CNC(=O)CCn1c(=O)[nH]c2ccsc2c1=O`, the IC50 in test [1] was over 30 µM; in test [2], 20.9 µM.

For the molecule `OC1CCCCC1C1(NC(=S)Nc2ccccc2)CCCCC1` (centres undefined), the 50% inhibitory concentration (IC50) in test [1] and in test [2] was over 30 µM in each case.

`OC(CNCc1ccccc1)Cn1c2ccccc2c2ccccc21` (centres undefined): the IC50 in test [1] and in test [2] was over 30 µM in each case.

Regarding `Oc1c(C(Nc2ccccn2)c2cccc(Oc3ccccc3)c2)ccc2cccnc12` (centres undefined), the IC50 in test [1] and in test [2] was over 30 µM each time.

On to `COc1cc(OC)c(N(C)C(=O)c2cc3c(s2)-c2ccccc2S(=O)(=O)C3)cc1Cl`, for which the IC50 in test [1] and in test [2] was over 30 µM in each case.

For the molecule `CCOc1cc(Cl)c(C(C)NC(=O)c2ccccc2)cc1OCC` (centres undefined), the IC50 in test [1] and in test [2] was over 30 µM throughout.

Regarding `Clc1ccc2c(N3CCCC3)ccnc2c1`, the IC50 in test [1] is over 30 µM; in test [2], 1.49 µM.

Turning to `COc1ccc(CNC(=O)c2cc3c(=O)n4ccccc4nc3n(CCc3ccccc3)c2=N)cc1`, the IC50 in test [1] and in test [2] was over 30 µM throughout.

Turning to `CCOc1ccc(CCNC(=O)c2cccs2)cc1OCC`, the IC50 in test [1] and in test [2] was over 30 µM in each case.

Consider `COc1ccc(CCNC(=O)c2cc(S(=O)(=O)N3CC(C)CC(C)C3)ccc2Sc2ccc(F)cc2)cc1OC` (centres undefined), for which the IC50 in test [1] and in test [2] was over 30 µM throughout.

For `CCOc1c(Br)cc(C2C(C(=O)OC)=CN(C)C=C2C(=O)OC)cc1OC`, the IC50 in test [1] and in test [2] was over 30 µM throughout.

`CCCCc1ccc(NS(=O)(=O)c2cc3c4c(c2)CCN4C(=O)CC3)cc1`: the IC50 in test [1] and in test [2] was over 30 µM in each case.

`FC(F)(F)c1ccc(Nc2nnnc3ccccc23)cc1`: the IC50 in test [1] and in test [2] was over 30 µM each time.

In the case of `CCCCCCc1cc2cc(-c3nc4ccccc4[nH]3)c(=Nc3ccccc3C)oc2cc1O`, the IC50 was over 30 µM in test [1] and 6.28 µM in test [2].

On to `Nc1ccn([C@@H]2O[C@H](CO)[C@@H](O)[C@H]2O)c(=O)n1` [CYTIDINE], for which the 50% inhibitory concentration (IC50) in test [1] and in test [2] was over 30 µM throughout.

For `COc1cc(SC)ccc1C(=O)N1CCCC(C)C1` (centres undefined), the IC50 in test [1] and in test [2] was over 30 µM in each case.

As for `CC(C)c1ccc(CNCC(O)c2ccccc2)cc1` (centres undefined), the 50% inhibitory concentration (IC50) in test [1] is over 30 µM; in test [2], 18.1 µM.

`OCCNc1nc(Nc2ccc(Cl)c(Cl)c2)nc2ccccc12`: the concentration for half-maximal inhibition (IC50) in test [1] and in test [2] was over 30 µM in each case.

For `OC(CNCC1CCCO1)Cn1c2ccc(Cl)cc2c2cc(Cl)ccc21` (centres undefined), the IC50 in test [1] and in test [2] was over 30 µM throughout.

With `CCn1nc(-c2ccc(C(=O)OC)cc2)nc2c(=O)n(C)c(=O)nc1-2`, the IC50 in test [1] and in test [2] was over 30 µM throughout.

Take `Cc1ccc(Cn2c(N3CCC(C(=O)NCc4cccs4)CC3)nc3ccccc32)cc1`: the IC50 in test [1] and in test [2] was over 30 µM throughout.

As for `COc1ccccc1N1C(=N)SC(=Cc2ccc(OCc3ccccc3F)cc2)C1=O`, the IC50 in test [1] and in test [2] was over 30 µM in each case.

For the molecule `COc1cccc(NC(=O)[C@H](C(C)C)n2c(=O)[nH]c3ccccc3c2=O)c1`, the IC50 in test [1] and in test [2] was over 30 µM each time.

As for `COc1ccc(C(O)(CCC(C)C)C(CN2CCOCC2)c2ccc(Cl)cc2)cc1` (centres undefined), the IC50 in test [1] and in test [2] was over 30 µM each time.

Turning to `CC1CCCCN1CCCNC(=O)c1ccc2c(c1)sc1nc(-c3ccc(F)cc3)cn12` (centres undefined), the IC50 in test [1] and in test [2] was over 30 µM throughout.

As to `COCCNCC(O)Cn1c2ccc(Cl)cc2c2cc(Cl)ccc21` (centres undefined), the IC50 in test [1] and in test [2] was over 30 µM each time.

Consider `c1ccc(Cn2c(N=Nc3c(Nc4ccccc4)ccc4ccccc34)nc3ccccc32)cc1`, for which the IC50 in test [1] was over 30 µM; in test [2], 13.5 µM.

For the molecule `O=C(Nc1nc(-c2ccccn2)cs1)c1ccccc1Br`, the IC50 in test [1] and in test [2] was over 30 µM throughout.

As to `COc1ccc(-c2cc3c(SCC(=O)Nc4cc(C(F)(F)F)ccc4Cl)nccn3n2)cc1`, the IC50 in test [1] and in test [2] was over 30 µM in each case.

Regarding `c1ccc2cc3c(Nc4ccc(N5CCOCC5)cc4)ccnc3cc2c1`, the IC50 is 15.6 µM in test [1] and over 30 µM in test [2].

Consider `Cc1ccc(OCCCCCCNCCO)c(C)c1`, for which the IC50 in test [1] and in test [2] was over 30 µM in each case.

`CCN(CC)CCNc1ccnc2cc(Cl)ccc12`: the IC50 in test [1] and in test [2] was over 30 µM each time.

The values above are taken from ChEMBL document CHEMBL3301448, “MMV Malaria Box screening against Toxoplasma gondii and Entamoeba histolytica”.
